# Experiments:
# Format in all cases: in vivo, mouse
# [1] = tested on: G1H-G93A transgenic mice; experiment: Exercise tolerance test: extension reflex test; details: for Extension reflex test score: 5 mg/kg oral daily from 80th day (before onset), score 0-2
# Procedure: (§1) The following five kinds of exercise tolerance tests were conducted every fifth day from the 70th day after birth to evaluate the ability to exercise in the respective exercise tolerance tests. That is, the days for the exercise tolerance tests were every fifth days, such as the 70th day, 75th day, 80th day, 85th day and so on, after birth. The exercise tolerance tests were conducted throughout the survival period, and the post-mortem evaluation was based on the definitions of the following five kinds of exercise tolerance tests.
# As for extension reflex, extension of the hindlimbs is normally observed when a mouse is suspended in the air by its tail.
# The evaluation of extension reflex test of the mice was performed based on the following criteria: Score 0=Extension reflex is recognized in both of the hindlimbs; Score 1=Extension reflex is recognized only one hindlimb; and Score 2=Extension reflex is not recognized in both of the hindlimbs. The post-mortem evaluation of the extension reflex test is defined as score 2.
# [2] = tested on: G1H-G93A transgenic mice; experiment: Exercise tolerance test: footprint test; details: 5 mg/kg oral daily from 80th day (before onset), score 0-4
# Procedure: as §1
# Both hindlimbs of a mouse are dipped in a black ink bottle, and then the mouse is allowed to walk on white paper. The footprints of the two hindlimbs of the mouse after the walking are analyzed. […] The post-mortem evaluation of the footprint test is defined as score 4.
# [3] = tested on: G1H-G93A transgenic mice; experiment: Clinical symptomatological evaluation (day of onset, survival period, disease period, stage periods); details: for day of onset / disease period / survival period / time period of clinical symptomatological stage 1 / time period of clinical symptomatological stage 2 / time period of clinical symptomatological stage 3 / time period of clinical symptomatological stage 4 / time period of clinical symptomatological stage 5: average±SD
# Procedure: 1) The procedure of concentration adjustment, and the amount and the procedure of administration of the compound (a) were as described below. As a base, 0.5% methylcellulose is prepared. 5 mg of the compound (a) is pulverized in an agate mortar, and then a small amount of 0.5% methylcellulose is added to form a complete suspension. Subsequently, a small amount of 0.5% methylcellulose is added gradually, so that finally 5 mg of the compound (a) is suspended in 10 mL of 0.5% methylcellulose. A sample of 5 mg of compound (a)/10 mL of 0.5% methylcellulose (5 mg/10 mL) was prepared by the above-described procedure, and thus the compound (a) was orally administered once a day in a dose of 5 mg per kg of the mouse body weight (5 mg/kg).
# As the experimental animal, male transgenic mice over-expressing a high copy number (25 copies) of mutated human SOD1 gene with a G93A point mutation, i.e., B6SJL-TgN [SOD1-G93A]1Gur (G1H-G93A transgenic mice, JR2726; Hemizygote) (Gurney M E, et al., Science, 264, 1772-1775, 1994), were purchased from Jackson Laboratory (Bar Harbor, USA) and used. At the same time, wild-type male mice from the same litter, B6SJL-TgN[SOD1-G93A]1Gur (Wild-type), were also purchased from Jackson Laboratory and used.
# The mice were subjected to a clinical symptomatological evaluation everyday. The clinical symptomatological evaluation was performed from one week after the arrival from Jackson Laboratory. […] The day of onset, the survival period and the disease period were indicated by the number of days. In regard to the indication of the number of days of the disease period, one day (one disease day) corresponds to within 24 hours from the onset (the “onset” is determined by the observation of the clinical symptomatological evaluation stage 1), and two days (two disease days) corresponds to more than 24 hours after and within 48 hours from the onset. Subsequent disease days after the onset were determined in the same manner.
# The mice were divided into seven experimental groups, to which a placebo, the compound (a), compound (b), compound (c) or allopurinol was administered. That is, the seven groups consist of: an experimental group administered with placebo; a treatment experimental group administered with compound (a) before onset; a treatment experimental group administered with compound (a) after onset; a treatment experimental group administered with compound (b) before onset; a treatment experimental group administered with compound (c) before onset; a treatment experimental group administered with compound (c) after onset; and a treatment group administered with allopurinol before onset. Details of the respective groups will be described in the following.
# Ten G1H-G93A transgenic mice were used. From the 80th day after birth, 5 mg/kg of the compound (a) was orally administered everyday. […]
# Ten G1H-G93A transgenic mice were used. From the 80th day after birth, 5 mg/kg of the compound (b) was orally administered everyday.
# Ten G1H-G93A transgenic mice were used. From the 80th day after birth, 5 mg/kg of the compound (c) was orally administered everyday. […]
# Ten G1H-G93A transgenic mice were used. From the 80th day after birth, 5 mg/kg of allopurinol was orally administered everyday.
# In regard to the results of the clinical symptomatological evaluation, the day of onset, the survival period (days taken to show quadriplegia and to reach the moribund state), the disease period (days taken to show quadriplegia and to reach the moribund state, from the day of onset), and the time periods for the respective stages of the clinical symptomatological evaluation, were indicated by the average±standard deviation. In regard to the results of the exercise tolerance test, the score values of the respective exercise tolerance tests, including the extension reflex test, inclined plane test, footprint test, rotarod test and beam balance test, were indicated by the average±standard deviation. […]
# [4] = 5 mg/kg oral daily from 80th day after birth (before onset), Mann-Whitney's U test, log-rank test
# [5] = 5 mg/kg oral daily from the day of onset (after onset), Mann-Whitney's U test, log-rank test
# [6] = 5 mg/kg oral once a day from 80th day after birth (before onset)
# [7] = 5 mg/kg oral once a day from the onset (after onset)
compound,measurement,setting,value
"Cc1nc(-c2ccc(OCC(C)C)c(C#N)c2)sc1C(=O)O [compound (c), 2-[3-cyano-4-(2-methylpropoxy)phenyl]-4-methyl-5-thiazolecarboxylic acid]",Extension reflex test score,"[1]; 70th day after birth, 5 mg/kg",0.0±0.0
same,Extension reflex test score,"[1]; 75th day after birth, 5 mg/kg",0.0±0.0
same,Extension reflex test score,"[1]; 80th day after birth, 5 mg/kg",0.0±0.0
same,Extension reflex test score,"[1]; 85th day after birth, 5 mg/kg",0.0±0.0
same,Extension reflex test score,"[1]; 90th day after birth, 5 mg/kg",0.0±0.0
same,Extension reflex test score,"[1]; 95th day after birth, 5 mg/kg",0.0±0.0
same,Extension reflex test score,"[1]; 100th day after birth, 5 mg/kg",0.0±0.0
same,Extension reflex test score,"[1]; 105th day after birth, 5 mg/kg",0.0±0.0
same,effect in extension reflex test as compared to placebo group,"[1]; 105th, 110th, 115th and 120th day, 5 mg/kg oral daily from 80th day after birth, Mann-Whitney's U test",significant effects
same,Extension reflex test score,"[1]; 110th day after birth, 5 mg/kg",0.1±0.3
same,Extension reflex test score,"[1]; 115th day after birth, 5 mg/kg",0.5±0.5
same,Extension reflex test score,"[1]; 120th day after birth, 5 mg/kg",1.1±0.6
same,Extension reflex test score,"[1]; 125th day after birth, 5 mg/kg",1.7±0.5
same,Extension reflex test score,[1]; 130th day after birth,2.0 ± 0.0
same,Extension reflex test score,[1]; 135th day after birth,2.0 ± 0.0
same,Extension reflex test score,[1]; 140th day after birth,2.0 ± 0.0
same,Extension reflex test score,[1]; from the 130th day to 140th day after birth,2.0±0.0
same,Footprint test score,[2]; 70th day after birth,0.0±0.0
same,Footprint test score,[2]; 75th day after birth,0.0±0.0
same,Footprint test score,[2]; 80th day after birth,0.0±0.0
same,Footprint test score,[2]; 85th day after birth,0.0±0.0
same,Footprint test score,[2]; 90th day after birth,0.0±0.0
same,Footprint test score,[2]; 95th day after birth,0.0±0.0
same,Footprint test score,[2]; 100th day after birth,0.0±0.0
same,Footprint test score,[2]; 105th day after birth,0.0±0.0
same,Footprint test score,[2]; 110th day after birth,0.1±0.3
same,Footprint test score,[2]; 115th day after birth,0.7±0.8
same,Footprint test score,[2]; 120th day after birth,1.6±1.0
same,Footprint test score,[2]; 125th day after birth,2.7±0.5
same,Footprint test score,[2]; 130th day after birth,3.3±0.5
same,Footprint test score,[2]; 135th day after birth,3.9±0.3
same,Footprint test score,[2]; 140th day after birth,4.0±0.0
same,time periods for the respective stages in comparison to placebo group,"[3]; 5 mg/kg oral daily from 80th day after birth (before onset), Mann-Whitney's U test",extended period of the respective stages with significant difference
same,disease period extending effect in comparison to placebo group,[3]; [4],significant extension of the disease period
same,onset delaying effect in comparison to placebo group,[3]; [4],significant delaying of the day of onset
same,survival period extending effect in comparison to placebo group,[3]; [4],significant extension of the survival period
same,time periods for the respective stages in comparison to placebo group,"[3]; 5 mg/kg oral daily from the day of onset (after onset), Mann-Whitney's U test","extended period of stage 3 (P<0.05, Mann-Whitney's U test) and stage 4 (P<0.05, Mann-Whitney's U test) with significant differences"
same,disease period extending effect in comparison to placebo group,[3]; [5],disease period extending effect
same,survival period extending effect in comparison to placebo group,[3]; [5],survival period extending effect
same,day of onset,[3]; [6],112.0 ± 4.6 days
same,disease period,[3]; [6],25.4 ± 3.2 days
same,survival period,[3]; [6],136.4 ± 3.3 days
same,time period of clinical symptomatological stage 1,[3]; [6],7.5±0.9 days
same,time period of clinical symptomatological stage 2,[3]; [6],6.7±1.2 days
same,time period of clinical symptomatological stage 3,[3]; [6],5.4±1.1 days
same,time period of clinical symptomatological stage 4,[3]; [6],3.9±1.1 days
same,time period of clinical symptomatological stage 5,[3]; [6],1.9±0.3 days
same,day of onset,[3]; [7],100.7 ± 4.3 days
same,disease period,[3]; [7],24.2 ± 3.2 days
same,survival period,[3]; [7],123.9 ± 3.2 days
same,time period of clinical symptomatological stage 1,[3]; [7],7.6±1.2 days
same,time period of clinical symptomatological stage 2,[3]; [7],6.2±0.8 days
same,time period of clinical symptomatological stage 3,[3]; [7],5.4±1.1 days
same,time period of clinical symptomatological stage 4,[3]; [7],3.5±0.5 days
same,time period of clinical symptomatological stage 5,[3]; [7],1.5±0.5 days

# Source: US8318792B2, “Therapeutic agent for amyotrophic lateral sclerosis” (Nippon Medical School Foundation, priority 2006, dated 2012)
